# Legend:
# Acinetobacter strains = assay: Checkerboard synergy study (FIC/FBC index); type: cell-based; details: for Summary of synergy data (overall interaction): Acinetobacter, combined with P4075EC & 1 mM EDTA
# [1] = system: P. aeruginosa, B. cenocepacia, A. baumannii and S. maltophilia; assay: MIC/MBC against all strains of Example 8; details: for MBC: read-out: MBC90, against all strains
# Burkholderia strains = assay: Checkerboard synergy study (FIC/FBC index); type: cell-based; details: for Summary of synergy data (overall interaction): Burkholderia, combined with P4075EC & 5 mM EDTA
# Stenotrophomonas strains = assay: Checkerboard synergy study (FIC/FBC index); type: cell-based; details: for Summary of synergy data (overall interaction): Stenotrophomonas, combined with P4075EC & 1 mM EDTA
# [2] = system: methicillin-resistant Staphylococcus aureus (MRSA); assay: Susceptibility (MIC/MBC) of MRSA clinical isolates; type: cell-based; details: Staphylococcus aureus; MRSA isolates; read-out: MIC90
# [3] = system: subset (23) of gram-negative isolates; assay: Cidality (MBC/MIC ratio) against a subset (23) of gram-negative isolates; type: cell-based, gram-negative bacteria; details: 23 isolates
# [4] = isolate NB31, combined with P4075EC+EDTA
# [5] = isolate NB32, combined with P4075EC+EDTA
# [6] = isolate NB33, combined with P4075EC+EDTA
# [7] = isolate NB34, combined with P4075EC+EDTA
# [8] = isolate NB35, combined with P4075EC+EDTA
# [9] = isolate NB36, combined with P4075EC+EDTA
# [10] = isolate NB37, combined with P4075EC+EDTA
# [11] = isolate NB38, combined with P4075EC+EDTA
# [12] = isolate NB39, combined with P4075EC+EDTA
# [13] = isolate NB40, combined with P4075EC+EDTA
# [14] = share of 10 Acinetobacter strains with synergy, combined with P4075EC+EDTA
# [15] = isolate NB21, combined with P4075EC+EDTA
# [16] = isolate NB22, combined with P4075EC+EDTA
# [17] = isolate NB23, combined with P4075EC+EDTA
# [18] = isolate NB24, combined with P4075EC+EDTA
# [19] = isolate NB25, combined with P4075EC+EDTA
# [20] = isolate NB26, combined with P4075EC+EDTA
# [21] = isolate NB27, combined with P4075EC+EDTA
# [22] = isolate NB28b, combined with P4075EC+EDTA
# [23] = isolate NB29, combined with P4075EC+EDTA
# [24] = isolate NB30, combined with P4075EC+EDTA
# [25] = share of ten Burkholderia strains with synergy, combined with P4075EC+EDTA
# [26] = isolate NB42, combined with P4075EC+EDTA
# [27] = isolate NB43, combined with P4075EC+EDTA
# [28] = isolate NB44, combined with P4075EC+EDTA
# [29] = isolate NB45, combined with P4075EC+EDTA
# [30] = isolate Steno 1, combined with P4075EC+EDTA
# [31] = isolate Steno 2, combined with P4075EC+EDTA
# [32] = isolate Steno 3, combined with P4075EC+EDTA
# [33] = isolate Steno 4, combined with P4075EC+EDTA
# [34] = isolate Steno 6, combined with P4075EC+EDTA
# [35] = isolate Steno 8, combined with P4075EC+EDTA
# [36] = share of Stenotrophomonas strains with synergy, combined with P4075EC+EDTA
molecule,measurement,setting,value
NC[C@H]1O[C@H](O[C@H]2[C@H](O)[C@@H](O[C@H]3O[C@H](CO)[C@@H](O)[C@H](N)[C@H]3O)[C@H](N)C[C@@H]2N)[C@H](N)C[C@@H]1O [Tobramycin],Summary of synergy data (overall interaction),Acinetobacter strains,No Interference
same,MIC90,[1],> 32 µg/mL
same,MBC,[1],> 32 µg/mL
same,Summary of synergy data (overall interaction),Burkholderia strains,No Interference
same,Summary of synergy data (overall interaction),Stenotrophomonas strains,No Interference
C[C@H]1COc2c(N3CCN(C)CC3)c(F)cc3c(=O)c(C(=O)O)cn1c23 [Levofloxacin],MIC90,[2],32 µg/mL
same,MIC90,[1],16 µg/mL
same,MBC,[1],16 µg/mL
same,number of strains with MBC/MIC ratio 1,[3]; Cidal,9 number of strains
same,number of strains with MBC/MIC ratio 2,[3]; Cidal,8 number of strains
same,number of strains with MBC/MIC ratio 4,[3]; Cidal,1 number of strains
same,number of strains with MBC/MIC ratio >8x,[3]; Static,5 number of strains
Colistin,Summary of synergy data (overall interaction),Acinetobacter strains,No Interference
same,FBC,Acinetobacter strains; [4],2.44
same,FIC,Acinetobacter strains; [4],0.83
same,Synergy (FBC),Acinetobacter strains; [4],indifferent
same,Synergy (FIC),Acinetobacter strains; [4],indifferent
same,FBC,Acinetobacter strains; [5],1.36
same,FIC,Acinetobacter strains; [5],0.58
same,Synergy (FBC),Acinetobacter strains; [5],indifferent
same,Synergy (FIC),Acinetobacter strains; [5],indifferent
same,FBC,Acinetobacter strains; [6],2
same,FIC,Acinetobacter strains; [6],0.33
same,Synergy (FBC),Acinetobacter strains; [6],indifferent
same,Synergy (FIC),Acinetobacter strains; [6],yes
same,FBC,Acinetobacter strains; [7],1.10
same,FIC,Acinetobacter strains; [7],0.46
same,Synergy (FBC),Acinetobacter strains; [7],indifferent
same,Synergy (FIC),Acinetobacter strains; [7],yes
same,FBC,Acinetobacter strains; [8],0.97
same,FIC,Acinetobacter strains; [8],0.72
same,Synergy (FBC),Acinetobacter strains; [8],indifferent
same,Synergy (FIC),Acinetobacter strains; [8],indifferent
same,FBC,Acinetobacter strains; [9],2
same,FIC,Acinetobacter strains; [9],0.56
same,Synergy (FBC),Acinetobacter strains; [9],indifferent
same,Synergy (FIC),Acinetobacter strains; [9],indifferent
same,FBC,Acinetobacter strains; [10],1.00
same,FIC,Acinetobacter strains; [10],0.63
same,Synergy (FBC),Acinetobacter strains; [10],indifferent
same,Synergy (FIC),Acinetobacter strains; [10],indifferent
same,FBC,Acinetobacter strains; [11],0.68
same,FIC,Acinetobacter strains; [11],0.77
same,Synergy (FBC),Acinetobacter strains; [11],indifferent
same,Synergy (FIC),Acinetobacter strains; [11],indifferent
same,FBC,Acinetobacter strains; [12],1.22
same,FIC,Acinetobacter strains; [12],0.72
same,Synergy (FBC),Acinetobacter strains; [12],indifferent
same,Synergy (FIC),Acinetobacter strains; [12],indifferent
same,FBC,Acinetobacter strains; [13],0.91
same,FIC,Acinetobacter strains; [13],0.63
same,Synergy (FBC),Acinetobacter strains; [13],indifferent
same,Synergy (FIC),Acinetobacter strains; [13],indifferent
same,% FBC Synergy,Acinetobacter strains; [14],0%
same,% FIC Synergy,Acinetobacter strains; [14],20%
same,Summary of synergy data (overall interaction),Burkholderia strains,No Interference
same,FBC,Burkholderia strains; [15],2.07
same,FIC,Burkholderia strains; [15],1.45
same,Synergy (FBC),Burkholderia strains; [15],indifferent
same,Synergy (FIC),Burkholderia strains; [15],indifferent
same,FBC,Burkholderia strains; [16],2.29
same,FIC,Burkholderia strains; [16],1.37
same,Synergy (FBC),Burkholderia strains; [16],indifferent
same,Synergy (FIC),Burkholderia strains; [16],indifferent
same,FBC,Burkholderia strains; [17],2.00
same,FIC,Burkholderia strains; [17],1.01
same,Synergy (FBC),Burkholderia strains; [17],indifferent
same,Synergy (FIC),Burkholderia strains; [17],indifferent
same,FBC,Burkholderia strains; [18],2.00
same,FIC,Burkholderia strains; [18],1.72
same,Synergy (FBC),Burkholderia strains; [18],indifferent
same,Synergy (FIC),Burkholderia strains; [18],indifferent
same,FBC,Burkholderia strains; [19],3.00
same,FIC,Burkholderia strains; [19],2.00
same,Synergy (FBC),Burkholderia strains; [19],indifferent
same,Synergy (FIC),Burkholderia strains; [19],indifferent
same,FBC,Burkholderia strains; [20],0.04
same,FIC,Burkholderia strains; [20],0.56
same,Synergy (FBC),Burkholderia strains; [20],yes
same,Synergy (FIC),Burkholderia strains; [20],yes
same,FBC,Burkholderia strains; [21],1.64
same,FIC,Burkholderia strains; [21],1.93
same,Synergy (FBC),Burkholderia strains; [21],indifferent
same,Synergy (FIC),Burkholderia strains; [21],indifferent
same,FBC,Burkholderia strains; [22],1.54
same,FIC,Burkholderia strains; [22],0.29
same,Synergy (FBC),Burkholderia strains; [22],indifferent
same,Synergy (FIC),Burkholderia strains; [22],yes
same,FBC,Burkholderia strains; [23],1.68
same,FIC,Burkholderia strains; [23],1.61
same,Synergy (FBC),Burkholderia strains; [23],indifferent
same,Synergy (FIC),Burkholderia strains; [23],indifferent
same,FBC,Burkholderia strains; [24],1.86
same,FIC,Burkholderia strains; [24],0.02
same,Synergy (FBC),Burkholderia strains; [24],indifferent
same,Synergy (FIC),Burkholderia strains; [24],yes
same,% FBC Synergy,Burkholderia strains; [25],10%
same,% FIC Synergy,Burkholderia strains; [25],30%
same,Summary of synergy data (overall interaction),Stenotrophomonas strains,Synergy
same,FBC,Stenotrophomonas strains; [26],1.28
same,FIC,Stenotrophomonas strains; [26],0.08
same,Synergy (FBC),Stenotrophomonas strains; [26],indifferent
same,Synergy (FIC),Stenotrophomonas strains; [26],yes
same,FBC,Stenotrophomonas strains; [27],0.15
same,FIC,Stenotrophomonas strains; [27],0.08
same,Synergy (FBC),Stenotrophomonas strains; [27],yes
same,Synergy (FIC),Stenotrophomonas strains; [27],yes
same,FBC,Stenotrophomonas strains; [28],0.57
same,FIC,Stenotrophomonas strains; [28],1.01
same,Synergy (FBC),Stenotrophomonas strains; [28],indifferent
same,Synergy (FIC),Stenotrophomonas strains; [28],indifferent
same,FBC,Stenotrophomonas strains; [29],0.45
same,FIC,Stenotrophomonas strains; [29],0.04
same,Synergy (FBC),Stenotrophomonas strains; [29],yes
same,Synergy (FIC),Stenotrophomonas strains; [29],yes
same,FBC,Stenotrophomonas strains; [30],0.11
same,FIC,Stenotrophomonas strains; [30],0.08
same,Synergy (FBC),Stenotrophomonas strains; [30],yes
same,Synergy (FIC),Stenotrophomonas strains; [30],yes
same,FBC,Stenotrophomonas strains; [31],0.04
same,FIC,Stenotrophomonas strains; [31],0.09
same,Synergy (FBC),Stenotrophomonas strains; [31],yes
same,Synergy (FIC),Stenotrophomonas strains; [31],yes
same,FBC,Stenotrophomonas strains; [32],0.14
same,FIC,Stenotrophomonas strains; [32],0.09
same,Synergy (FBC),Stenotrophomonas strains; [32],yes
same,Synergy (FIC),Stenotrophomonas strains; [32],yes
same,FBC,Stenotrophomonas strains; [33],1.14
same,FIC,Stenotrophomonas strains; [33],0.46
same,Synergy (FBC),Stenotrophomonas strains; [33],indifferent
same,Synergy (FIC),Stenotrophomonas strains; [33],yes
same,FBC,Stenotrophomonas strains; [34],0.02
same,FIC,Stenotrophomonas strains; [34],0.09
same,Synergy (FBC),Stenotrophomonas strains; [34],yes
same,Synergy (FIC),Stenotrophomonas strains; [34],yes
same,FBC,Stenotrophomonas strains; [35],0.07
same,FIC,Stenotrophomonas strains; [35],0.09
same,Synergy (FBC),Stenotrophomonas strains; [35],yes
same,Synergy (FIC),Stenotrophomonas strains; [35],yes
same,% FBC Synergy,Stenotrophomonas strains; [36],70%
same,% FIC Synergy,Stenotrophomonas strains; [36],90%

# Source: patent US20100092526A1, “NANOEMULSION THERAPEUTIC COMPOSITIONS AND METHODS OF USING THE SAME” (NanoBio Corporation, priority 2008, published 2010)
